What was measured:
Test in all cases: MIC of imipenem, ertapenem and meropenem
[1] = test system: K. pneumoniae; format: cell-based, Klebsiella pneumoniae
[2] = test system: P. stuartii; format: cell-based, Providencia stuartii
[3] = test system: C. koseri; format: cell-based

Measured: MIC

C[C@@H](O)[C@H]1C(=O)N2C(C(=O)O)=C(S[C@@H]3CN[C@H](C(=O)N(C)C)C3)[C@H](C)[C@H]12 [MEM, meropenem]
0.032 µg/mL: [1]; strain K. pneumoniae 7725, SHV-1, non-carbapenemase producer
0.12 µg/mL: [1]; K. pneumoniae KPN (CTX-M-15)
0.75 µg/mL: [1]; K. pneumoniae VSG (OXA-48 + TEM-1 + CTX-M-15 + OXA-1) | [1]; K. pneumoniae VSG, OXA-48 + TEM-1 + CTX-M-15 + OXA-1 | [1]; strain K. pneumoniae VSG, OXA-48 + TEM-1 + CTX-M-15 + OXA-1
1 µg/mL: [1]; K. pneumoniae KIE, NDM-1 + SHV-38 + CMY-16 + OXA-10 | [1]; K. pneumoniae MAD (VIM-1 + CTX-M-3) | [1]; K. pneumoniae MAD, VIM-1+ CTX-M-3 | [1]; K. pneumoniae RAM (OXA-48) | [1]; K. pneumoniae RAM, OXA-48 | [1]; K. pneumoniae SHI (CTX-M-15 + TEM-1 + SHV-1) | [1]; K. pneumoniae SHI, CTX-M-15 + TEM-1 + SHV-11, non-carbapenemase producer, porin deficiency | [1]; K. pneumoniae SHM (CTX-M-15 + TEM-1 + SHV-11) | [1]; strain K. pneumoniae BEL, OXA-48 | [1]; strain K. pneumoniae BER, SHV-28 + TEM-1, non-carbapenemase producer | [1]; strain K. pneumoniae HOL, OXA-181 + CTX-M-15
0.25 µg/mL: [1]; K. pneumoniae OM11, OXA-48 + TEM-1 + CTX-M-14 | [1]; K. pneumoniae ROU (OXA-48 + CTX-M-15) | [1]; K. pneumoniae ROU, OXA-48 + CTX-M-15 | [1]; K. pneumoniae SCO (OXA-48) | [1]; K. pneumoniae SCO, OXA-48 | [1]; K. pneumoniae SIC (OXA-48 + CTX-M-15 + SHV-28) | [1]; K. pneumoniae SIC, OXA-48 + CTX-M-15 + SHV-28 | [1]; strain K. pneumoniae BEN, OXA-48 + TEM-1 + CTX-M-15 + SHV-28 | [1]; strain K. pneumoniae ROU, OXA-48 + CTX-M-15 | [1]; strain K. pneumoniae SCO, OXA-48 | [1]; strain K. pneumoniae SIC, OXA-48 + CTX-M-15 + SHV-28
0.5 µg/mL: [1]; K. pneumoniae LOU, OXA-48 | [1]; K. pneumoniae OMA (OXA-181 + CTX-M-15 + OXA-1) | [1]; K. pneumoniae OMA, OXA-181 + CTXM-15 + OXA-1 | [1]; K. pneumoniae ROB (OXA-48 + CTX-M-15 + TEM-1) | [1]; K. pneumoniae TAW, IMP-8 + SHV-12 | [1]; K. pneumoniae TWA, IMP-8 | [1]; strain K. pneumoniae OMA, OXA-181 + CTXM-15 + OXA-1
16 µg/mL: [1]; K. pneumoniae LIB, OXA-48 | [1]; K. pneumoniae OM4, NDM-1 + TEM-1 + CTX-M-15 + SHV-12 + OXA-9 | [1]; K. pneumoniae OM16, NDM-1 + CTX-M-15 + OXA-1 + OXA-181
4 µg/mL: [1]; K. pneumoniae KI2, NDM-1 + CTX-M-15 + OXA-1 | [1]; K. pneumoniae OM8, NDM-1 + TEM-1 + CTX-M-15 + SHV-11 + OXA-1 | [1]; strain K. pneumoniae ALE, CTX-M-15 + SHV-1, non-carbapenemase producer | [1]; strain K. pneumoniae BED, CTX-M-15 + TEM-1 + SHV-11, non-carbapenemase producer
>32 µg/mL: [1]; K. pneumoniae LIB (OXA-48) | [1]; K. pneumoniae LIE, KPC-2 + TEM-2 + OXA-9 | [1]; K. pneumoniae OMA601, NDM-1 + CTX-M-15 + OXA-1 + OXA-9 | [1]; K. pneumoniae UK (NDM-1 + CTX-M-15 + CMY-4 + OXA-1) | [1]; K. pneumoniae UK, NDM-1 + CTX-M-15 + CMY-4 + OXA-1
8 µg/mL: [1]; K. pneumoniae OM19, NDM-1 + CTX-M-15 + SHV-12 + OXA-1 | [1]; K. pneumoniae TUR (IMP-1) | [1]; K. pneumoniae TUR, IMP-1
0.38 µg/mL: [1]; K. pneumoniae OM14, OXA-48 + TEM-1 | [1]; K. pneumoniae TIK, OXA-48 | [1]; K. pneumoniae VER, OXA-48 + TEM-1 + CTX-M-15 + SHV-11 | [1]; strain K. pneumoniae 648236, SHV-2a, non-carbapenemase producer | [1]; strain K. pneumoniae AMS, OXA-48 + TEM-1 + CTX-M-15 + OXA-1 | [1]; strain K. pneumoniae BAJ, OXA-48 + TEM-1 + CTX-M-15 + SHV-28 | [1]; strain K. pneumoniae ELK, OXA-48 + TEM-1 + CTX-M-15 + SHV-11 | [3]; C. koseri ROU, OXA-48 | [3]; C. koseri VER (OXA-48) | [3]; C. koseri VER, OXA-48 | [3]; strain C. koseri VER, OXA-48
2 µg/mL: [1]; K. pneumoniae OM13, NDM-1 + TEM-1 + CTX-M-15 + SHV-28 + OXA-1 + OXA-9 | [1]; K. pneumoniae OMA419 (NDM-1 + OXA-1) | [1]; K. pneumoniae OMA419, NDM-1 + OXA-1 | [1]; K. pneumoniae YC, KPC-2 + TEM-1 + SHV-11 + SHV-12 + OXA-9 | [1]; strain K. pneumoniae OMA419, NDM-1 + OXA-1
6 µg/mL: [1]; K. pneumoniae MEK (CTX-M-15 + SHV-11) | [1]; K. pneumoniae MEK, CTX-M-15 + SHV-11, non-carbapenemase producer, porin deficiency | [1]; K. pneumoniae SIM (CTX-M-15 + TEM-1 + SHV-1) | [1]; K. pneumoniae SIM, CTX-M-15 + TEM-1 + SHV-1, non-carbapenemase producer, porin deficiency
1.5 µg/mL: [1]; K. pneumoniae MUS (KPC-2 + TEM-1 + SHV-11 + SHV-12) | [1]; K. pneumoniae MUS, KPC-2 + TEM-1 + SHV-11 + SHV-12 | [1]; K. pneumoniae OM2 (NDM-1 + TEM-1 + CTX-M-3 + SHV-11 + OXA-1) | [1]; K. pneumoniae OM2, NDM-1 + TEM-1 + CTX-M-3 + SHV-11 + OXA-1 | [1]; strain K. pneumoniae MUS, KPC-2 + TEM-1 + SHV-11 + SHV-12 | [1]; strain K. pneumoniae OM2, NDM-1 + TEM-1 + CTX-M-3 + SHV-11 + OXA-1 | [2]; P. stuartii NDM (NDM-1 + OXA-1 + CMY-6) | [2]; P. stuartii PS1 (NDM-1 + CMY-6 + OXA-1) | [2]; P. stuartii PS1, NDM-1 + CMY-6 + OXA-1 | [2]; strain P. stuartii PS1, NDM-1 + CMY-6 + OXA-1
3 µg/mL: [1]; K. pneumoniae LEG (CTX-M-15 + TEM-1 + SHV-12) | [1]; K. pneumoniae LEG, CTX-M-15 + TEM-1 + SHV-12, non-carbapenemase producer, porin deficiency | [1]; K. pneumoniae OM15, NDM-1 + CTX-M-15 + SHV-130 + OXA-1 | [1]; K. pneumoniae SHM, CTX-M-15 + TEM-1 + SHV-11, non-carbapenemase producer, porin deficiency
0.012 µg/mL: [1]; K. pneumoniae KPN, CTX-M-15, non-carbapenemase producer
